Assay results taken from patent US20230250098A1 (priority 2021, published 2023).
Entries after “also recorded” stand apart in the source; their conditions may differ. Like-named read-outs stand apart in the source and are kept apart here.

Columns and labels:
HA-mouse μOP = molecular target: T1, HA-mouse μOP (Mus musculus, UniProt P42866); test: GloSensor cAMP inhibition assay in transfected HEK cells; assay type: cell-based; details: for cAMP α: efficacy normalized to positive control DAMGO; for IC50 / cAMP pIC50: inhibition of forskolin-induced cAMP
T1 construct: HA (N); expressed in transfected cells; host or cells: HEK cells, transient transfection together with pGloSensor22F

FLAG-mouse δOP = molecular target: T2, FLAG-mouse δOP (Mus musculus, UniProt P32300); test: as above; assay type: cell-based; details: for cAMP α: efficacy normalized to positive control Leu-Enk; for IC50 / cAMP pIC50: inhibition of forskolin-induced cAMP
T2 construct: FLAG (N); expressed in transfected cells; host or cells: HEK cells (HEK-293), transient transfection together with pGloSensor22F

FLAG-mouse κOP = molecular target: T3, FLAG-mouse κOP (Mus musculus, UniProt P33534); assay type: cell-based; details: for IC50: read-out: cAMP IC50
T3 construct: FLAG (N); expressed in transfected cells; host or cells: HEK cells, transient transfection together with pGloSensor22F

C57Bl/6 wild-type mice [1] = test: Two-bottle choice alcohol paradigm (drinking in the dark, 10% ethanol vs water); assay type: in vivo, mouse; details: systemic (i.p.) injection; modified 2-bottle choice; male C57BL/6 mice; FIG. 1
δOP KO mice [2] = test: Two-bottle choice alcohol paradigm in δOP KO mice; assay type: in vivo, mouse; details: 10 mg·kg^−1; male δOP KO mice
male mice = test: Tail flick thermal nociception assay; assay type: in vivo, mouse
C57Bl/6 wild-type mice [3] = details: cited from earlier work; for alcohol intake, in words (previous reports): 10 mg·kg^−1; for alcohol consumption, in words (previous reports): dose not stated
WT mice [4] = details: 7-hydroxymitragynine dose not stated; paynantheine 10 mg·kg^−1; cited from earlier work
μOP [5] = molecular target: T4, μOP (Homo sapiens, UniProt P35372); assay type: binding; parameters: membranes isolated; details: [3H]DAMGO, CHO membranes
δOP [6] = molecular target: T5, δOP (Homo sapiens, UniProt P41143); assay type: binding; parameters: membranes isolated; details: [3H]DPDPE, CHO membranes; for Ki: read-out: Binding Ki
κOP = κOP (Homo sapiens, UniProt P41145); assay type: binding; parameters: membranes isolated; details: for Ki: read-out: Binding Ki
WT mice [7] = test: Locomotor evaluation; details: 10 mg·kg^−1
δOP KO mice [8] = test: Seizure assay in δOP KO mice; details: 30 mg·kg^−1 i.p.
wildtype mice = test: Seizure assay (modified racine scale)
male, WT mice [9] = test: Conditioned place preference (brief and extended); details: 10 mg·kg^−1
μOP [10] = molecular target: T4, μOP; assay type: cell-based; details: normalized to positive control DAMGO
δOP [11] = molecular target: T5, δOP; assay type: cell-based
male, WT mice [12] = details: dose not stated; cited from earlier work

T4 sequence (P35372 whole entry): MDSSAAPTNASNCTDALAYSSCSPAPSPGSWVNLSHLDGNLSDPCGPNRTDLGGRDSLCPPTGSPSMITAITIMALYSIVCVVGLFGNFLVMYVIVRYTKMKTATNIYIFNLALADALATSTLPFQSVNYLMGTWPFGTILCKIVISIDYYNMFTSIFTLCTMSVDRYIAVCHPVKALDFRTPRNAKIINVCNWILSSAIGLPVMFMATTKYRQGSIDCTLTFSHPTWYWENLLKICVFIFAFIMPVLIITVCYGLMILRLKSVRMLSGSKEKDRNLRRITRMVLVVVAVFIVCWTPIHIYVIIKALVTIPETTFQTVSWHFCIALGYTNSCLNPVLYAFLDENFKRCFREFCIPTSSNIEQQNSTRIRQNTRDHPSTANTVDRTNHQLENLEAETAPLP
T2 sequence (P32300 whole entry): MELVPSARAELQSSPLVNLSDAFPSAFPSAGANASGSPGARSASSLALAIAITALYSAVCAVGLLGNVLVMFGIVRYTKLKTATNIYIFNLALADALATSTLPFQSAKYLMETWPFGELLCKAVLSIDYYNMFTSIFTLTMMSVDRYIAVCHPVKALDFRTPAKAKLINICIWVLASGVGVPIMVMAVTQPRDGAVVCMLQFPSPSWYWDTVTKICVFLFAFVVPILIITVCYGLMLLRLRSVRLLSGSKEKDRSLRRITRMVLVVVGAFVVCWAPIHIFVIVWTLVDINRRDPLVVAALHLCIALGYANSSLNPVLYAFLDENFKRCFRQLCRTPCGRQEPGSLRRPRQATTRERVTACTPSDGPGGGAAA
T5 sequence (P41143 whole entry): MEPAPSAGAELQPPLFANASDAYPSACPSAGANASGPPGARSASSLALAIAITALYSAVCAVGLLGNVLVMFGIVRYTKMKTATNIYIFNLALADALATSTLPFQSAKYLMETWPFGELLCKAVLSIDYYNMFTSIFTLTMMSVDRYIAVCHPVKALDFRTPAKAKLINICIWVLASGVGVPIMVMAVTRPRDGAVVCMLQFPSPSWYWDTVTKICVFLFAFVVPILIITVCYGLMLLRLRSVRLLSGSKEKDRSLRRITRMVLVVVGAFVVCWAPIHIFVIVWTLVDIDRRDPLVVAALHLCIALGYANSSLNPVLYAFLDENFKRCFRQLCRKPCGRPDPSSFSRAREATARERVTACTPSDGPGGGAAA
Sequence of κOP (P41145 whole entry): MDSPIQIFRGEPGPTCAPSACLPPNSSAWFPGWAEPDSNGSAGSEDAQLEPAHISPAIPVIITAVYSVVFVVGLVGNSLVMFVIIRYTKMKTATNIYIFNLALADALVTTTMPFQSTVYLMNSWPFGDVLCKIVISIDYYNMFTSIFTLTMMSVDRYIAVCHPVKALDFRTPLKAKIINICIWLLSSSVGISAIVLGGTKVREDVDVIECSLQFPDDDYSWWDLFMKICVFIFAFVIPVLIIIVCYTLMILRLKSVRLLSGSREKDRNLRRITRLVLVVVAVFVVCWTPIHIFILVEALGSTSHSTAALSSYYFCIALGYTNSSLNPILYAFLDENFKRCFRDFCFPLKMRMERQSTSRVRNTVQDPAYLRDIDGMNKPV
T1 sequence (P42866 whole entry): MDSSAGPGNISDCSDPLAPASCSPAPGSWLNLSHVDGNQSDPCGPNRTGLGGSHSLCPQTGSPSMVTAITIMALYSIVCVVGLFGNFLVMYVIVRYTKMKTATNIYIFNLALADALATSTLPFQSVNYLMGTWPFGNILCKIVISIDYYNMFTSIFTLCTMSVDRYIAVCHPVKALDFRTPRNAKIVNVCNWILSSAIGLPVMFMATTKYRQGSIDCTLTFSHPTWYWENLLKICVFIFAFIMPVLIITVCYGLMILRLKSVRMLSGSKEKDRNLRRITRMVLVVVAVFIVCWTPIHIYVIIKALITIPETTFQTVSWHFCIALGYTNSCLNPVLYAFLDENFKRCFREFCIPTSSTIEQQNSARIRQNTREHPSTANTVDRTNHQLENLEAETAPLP
T3 sequence (P33534 whole entry): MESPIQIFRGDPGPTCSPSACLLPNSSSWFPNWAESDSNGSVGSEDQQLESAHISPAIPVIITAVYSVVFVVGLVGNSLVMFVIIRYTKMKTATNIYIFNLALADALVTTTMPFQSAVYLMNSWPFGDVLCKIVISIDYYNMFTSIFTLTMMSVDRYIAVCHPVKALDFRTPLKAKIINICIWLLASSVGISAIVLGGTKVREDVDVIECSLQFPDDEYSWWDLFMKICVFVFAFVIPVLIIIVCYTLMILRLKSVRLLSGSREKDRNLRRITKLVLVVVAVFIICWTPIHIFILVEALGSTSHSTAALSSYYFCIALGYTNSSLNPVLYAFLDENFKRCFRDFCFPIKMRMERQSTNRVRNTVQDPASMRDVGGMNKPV

Structure (SMILES) | cAMP α (HA-mouse μOP) | IC50 (HA-mouse μOP) [nM] | cAMP pIC50 (HA-mouse μOP) | cAMP α (FLAG-mouse δOP) | IC50 (FLAG-mouse δOP) [nM] | cAMP pIC50 (FLAG-mouse δOP) | cAMP pIC50 (FLAG-mouse κOP) | cAMP α (FLAG-mouse κOP) | IC50 (FLAG-mouse κOP) [nM] | alcohol intake, in words (C57Bl/6 wild-type mice [1]) | alcohol consumption, in words (previous reports) (C57Bl/6 wild-type mice [3]) | hyperlocomotion (previous reports) (WT mice [4]) | Binding pKi (δOP [6]) | Ki (δOP [6]) [nM] | Binding pKi (κOP) | Ki (κOP) [nM] | further results
C=C[C@H]1CN2CCc3c([nH]c4cccc(OC)c34)[C@@H]2C[C@@H]1/C(=C\OC)C(=O)OC [PAYN, paynantheine, reference compound] | 100 ± 0 | 4080 | *5.4 ± 0.1 (5) | 64 ± 13 | 3550 | *5.6 ± 0.2 (4) | *5.3 ± 0.2 (4) | 95 ± 5 | 7430 | reduce alcohol intake | decrease alcohol consumption | without causing hyperlocomotion | 5.3 ± 0.1 (5) | 7820 | 5.5 ± 0.1 (5) | 4000 | ethanol consumption in δOP KO mice, in words (δOP KO mice [2]): did not significantly decrease ethanol consumption; also recorded: alcohol consumption was not significantly altered; block of morphine analgesia (antagonist mode) (male mice; 10 mg·kg^−1, then morphine 6 mg·kg^−1 s.c. 10 minutes later): did not produce antinociception (paired, two-tailed t-test, t=0.6193, df=9, p=0.5511) or block morphine analgesia; antinociception (agonist mode) (male mice; 10 mg·kg^−1, 30 minutes after drug): did not produce antinociception; alcohol intake, in words (previous reports) (C57Bl/6 wild-type mice [3]; listed as Paynantheine): decrease alcohol intake; alcohol intake, in words (previous reports) (C57Bl/6 wild-type mice [3]; listed as paynantheine): significant reduction; Binding pKi (μOP [5]): 6.3 ± 0.1 (4); Ki (μOP [5]; read-out: Binding Ki): 52 nM; ambulation / locomotor activity (WT mice [7]): a trend towards decreased locomotor activity; seizure activity in δOP KO mice (δOP KO mice [8]): still present in δOP KO mice; seizure activity (wildtype mice; 10 mg·kg^−1): not showing overt signs of seizure activity; seizure activity (wildtype mice; 30 mg·kg^−1): induced seizures; conditioned place preference, brief paradigm (male, WT mice [9]): induces conditioned place aversion (CPA); conditioned place preference, extended protocol (male, WT mice [9]; four conditioning sessions each for drug and vehicle): does not produce place preference
C[C@@H](NC(=O)[C@@H](N)Cc1ccc(O)cc1)C(=O)NCC(=O)N(C)[C@@H](Cc1ccccc1)C(=O)NCCO [DAMGO, (2S)-2-[[2-[[(2R)-2-[[(2S)-2-Amino-3-(4-hydroxyphenyl)propanoyl]amino]propanoyl]amino]acetyl]-methylamino]-N-(2-hydroxyethyl)-3-phenylpropanamide, reference compound] | 100 |  |  |  |  |  |  |  |  |  |  |  |  |  |  |  | β-arrestin 2 α (μOP [10]): 100
CC[C@@H]1CN2CC[C@@]3(O)C(=Nc4cccc(OC)c43)[C@@H]2C[C@@H]1/C(=C\OC)C(=O)OC [7-OH MITRA, 7-hydroxymitragynine, reference compound] | 84 ± 3 | 16 | 7.8±0.1 | 80 ± 8 | 960 | *5.7 ± 0.2 (8) | *6.2 ± 0.3 (9) | 77 ± 5 | 1040 | reduce alcohol intake | decrease alcohol consumption | caused both CPP and hyperlocomotion | 6.7 ± 0.1 (4) | 19 | 6.9 ± 0.1 (4) | 14 | β-arrestin 2 pEC50 (δOP [11]): 6.4 ± 0.3 (6); β-arrestin 2 α (δOP [11]; normalized to positive control Leu-Enk): 14 ± 1; conditioned place preference (previous report) (male, WT mice [12]): caused both CPP and hyperlocomotion
